Data reported in publication PMC8739840, “Structural and Molecular Insight into Piperazine and Piperidine Derivatives as Histamine H3 and Sigma-1 Receptor Antagonists with Promising Antinociceptive Properties” (ACS Chemical Neuroscience, 2021).
Where a name gives a salt, the structure may show the parent alone.

What was measured:
σ1R [1] = molecular target: σ1R (Cavia porcellus, UniProt Q60492); test: σ1R radioligand binding ([3H](+)-pentazocine, brain cortex membranes)
σ1R [2] = test: as above; conditions: σ2R Ki / σ1R Ki (selectivity factor)
[3] = molecular target: T1, human recombinant histamine H3R (Homo sapiens, UniProt Q9Y5N1); conditions: mean [CI 95%]; read-out: hH3R Ki; cited from earlier work
T1 construct: expressed in transfected cells
T1 sequence (Q9Y5N1 whole entry): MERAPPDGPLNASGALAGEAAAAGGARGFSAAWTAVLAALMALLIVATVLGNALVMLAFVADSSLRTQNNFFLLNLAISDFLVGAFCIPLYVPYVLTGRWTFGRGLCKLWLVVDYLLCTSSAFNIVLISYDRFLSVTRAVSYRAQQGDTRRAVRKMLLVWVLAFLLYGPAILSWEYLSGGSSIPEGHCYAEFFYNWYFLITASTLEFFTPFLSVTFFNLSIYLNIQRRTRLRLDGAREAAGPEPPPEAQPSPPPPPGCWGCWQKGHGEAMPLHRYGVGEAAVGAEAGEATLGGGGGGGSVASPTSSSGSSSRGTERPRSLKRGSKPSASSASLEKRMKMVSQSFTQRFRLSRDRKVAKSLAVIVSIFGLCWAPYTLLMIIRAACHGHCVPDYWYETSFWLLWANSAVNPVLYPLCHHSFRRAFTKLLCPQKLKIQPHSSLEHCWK

σ2R = molecular target: T2, σ2R (Rattus norvegicus, UniProt Q5U3Y7); test: σ2R radioligand binding ([3H]DTG, liver membranes)
T2 sequence (Q5U3Y7 1-176): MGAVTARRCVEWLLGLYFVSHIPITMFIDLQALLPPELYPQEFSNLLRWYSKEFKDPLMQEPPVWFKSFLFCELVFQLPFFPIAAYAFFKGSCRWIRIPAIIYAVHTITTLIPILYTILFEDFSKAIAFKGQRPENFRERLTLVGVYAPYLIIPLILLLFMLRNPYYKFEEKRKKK

female CD1 mice = test: loperamide-induced antinociception, paw pressure struggle response latency; type: in vivo; conditions: mice
[4] = exptl Ki σ1, Table 3, given as mean ± spread
[5] = σ1R Ki, mean [CI 95%], [3H](+)-pentazocine
[6] = exptl Ki σ2, Table 3, given as mean ± spread
[7] = σ2R Ki, mean [CI 95%], [3H]DTG with (+)-pentazocine mask

σ1R (Cavia porcellus, UniProt Q60492), sequence (Q60492 whole entry): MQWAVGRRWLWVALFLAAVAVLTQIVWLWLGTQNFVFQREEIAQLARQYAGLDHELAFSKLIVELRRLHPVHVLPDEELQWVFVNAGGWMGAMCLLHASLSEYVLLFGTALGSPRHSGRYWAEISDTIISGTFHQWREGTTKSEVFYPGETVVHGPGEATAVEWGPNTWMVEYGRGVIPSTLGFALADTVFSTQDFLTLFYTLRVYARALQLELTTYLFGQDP

SMILES | Ki (σ1R [1]; [4]) [nM] | Ki (σ1R [1]; [5]) [nM] | σ2/σ1 ratio (σ1R [2]) | Ki [3] [nM] | Ki (σ2R; [6]) [nM] | Ki (σ2R; [7]) [nM] | effect on antinociception of loperamide + S1RA (female CD1 mice; 1 mg/kg sc, identical with 5 or 11) | struggle response latency versus solvent (female CD1 mice; 4 mg/kg sc alone)
CC(=O)c1ccc(OCCCCCCCCN2CCN(c3ccncc3)CC2)cc1 [Compound 19] | 408 ± 111 | 408 | 0.1 | 40.5 | 59.7 ± 11.2 | 59.7 |  | 
CC(=O)c1ccc(OCCCCN2CCN(c3ccncc3)CC2)cc1 [Compound 15] | > 10000 | > 10000 | <0.2 |  | 1790 ± 415 | 1800 |  | 
O=C(c1ccc(F)cc1)c1ccc(OCCCN2CCN(c3ccncc3)CC2)cc1 [Compound 10] | 1310 ± 332 | 1310 | 0.1 |  | 164 ± 34.6 | 164 |  | 
CCc1ccc(OCCCN2CCN(c3ccncc3)CC2)cc1 [Compound 1] | 592 ± 94.1 | 592 | 0.1 | 40.4 | 64.3 ± 14 | 64.3 |  | 
CC(C)(C)c1ccc(OCCCCCCN2CCN(c3ccncc3)CC2)cc1 [Compound 18] | 255 ± 48 | 255 | 0.7 | 397 | 179 ± 27.2 | 179 |  | 
CCC(=O)c1ccc(OCCCCCCN2CCN(c3ccncc3)CC2)cc1 [Compound 17] | 248 ± 30.9 | 248 | 0.4 | 16.9 | 110 ± 15.9 | 110 |  | 
C=CCN1CC[C@]23c4c5ccc(O)c4O[C@H]2C(=O)CC[C@@]3(O)[C@H]1C5 [naloxone, Naloxone hydrochloride, reference compound] |  |  |  |  |  |  | full reversion of the antinociceptive effect of the combination of loperamide + S1RA | 
CC(=O)c1ccc(OCCCCCCN2CCN(c3ccncc3)CC2)cc1 [Compound 16] | 37.8 ± 16.1 | 37.8 | 4.0 | 12.7 | 151 ± 26.4 | 151 |  | 
CC(C)(C)c1ccc(OCCCN2CCN(c3ccncc3)CC2)cc1 [Compound 2] | 112 ± 9.45 | 112 | 1.2 |  | 130 ± 8.23 | 130 |  | 
CN(C)C(=O)C(CCN1CCC(O)(c2ccc(Cl)cc2)CC1)(c1ccccc1)c1ccccc1 [loperamide, loperamide hydrochloride, reference compound] |  |  |  |  |  |  |  | minimal (nonsignificant) increase in the struggle response latency
O=C(c1ccc(OCCCN2CCN(c3ccncc3)CC2)cc1)C1CC1 [Compound 4] | 1530 ± 275 | 1530 | 0.1 | 3 | 101 ± 15.4 | 101 |  | 
N#Cc1ccc(-c2ccc(OCCCN3CCN(c4ccncc4)CC3)cc2)cc1 [Compound 7] |  |  |  |  | 75.2 ± 13 | 75.2 |  | 
c1ccc(-c2ccc(OCCCN3CCN(c4ccncc4)CC3)cc2)cc1 [Compound 6] | 638 ± 120 | 638 | 0.2 | 21.1 | 108 ± 19.2 | 108 |  | 
CC(C)(C)c1ccc(OCCCCN2CCN(c3ccncc3)CC2)cc1 [Compound 13] | 51.8 ± 9.1 | 51.8 | 3.4 |  | 175 ± 35.1 | 175 |  | 
CC(=O)c1ccc(OCCCN2CCN(c3ccncc3)CC2)cc1 [Compound 3] | 1410 ± 312 | 1410 | 0.2 |  | 247 ± 39.4 | 247 |  | 
CCC(C)(C)c1ccc(OCCCCN2CCN(c3ccncc3)CC2)cc1 [Compound 14] | 285 ± 50.4 | 285 | 0.4 |  | 101 ± 19.3 | 101 |  | 
O=C(c1ccc(Cl)cc1)c1ccc(OCCCN2CCN(c3ccncc3)CC2)cc1 [Compound 9] | 641 ± 87.9 | 641 | 0.1 |  | 32.4 ± 3.46 | 32.4 |  | 
O=C(c1ccccc1)c1ccc(OCCCN2CCN(c3ccncc3)CC2)cc1 [Compound 8] | 726 ± 177 | 726 |  |  | 29.2 ± 1.81 | 29.2 |  | 
